22 compounds from patent EP3771714A1, “NITROGEN-CONTAINING HETEROCYCLES AS PESTICIDES” (Bayer AG, priority 2019, dated 2021) can be followed below.

Where “and” joins values, the source holds several entries; their conditions need not be identical. Equal values may be shown once. Read-outs that look alike come from different tables or passages of the source.

The test system of one data set is Diabrotica balteata. The data set is described as follows: Diabrotica balteata spray test. The format is in vivo. The note with it: 500 g/ha (=160 µg/Kavität); wheat (Triticum aestivum) with beetle larvae; after 7 days; 100 % = all wheat plants grown as in untreated, uninfected control. The source says:
(§1) Zur Herstellung einer zweckmäßigen Wirkstoffzubereitung löst man 1 Gewichtsteil Wirkstoff mit den angegebenen Gewichtsteilen Lösungsmittel und füllt mit Wasser, welches eine Emulgatorkonzentration von 1000 ppm enthält, bis zum Erreichen der gewünschten Konzentration auf. Zur Herstellung weiterer Testkonzentrationen wird mit emulgatorhaltigem Wasser verdünnt.
Vorgequollene Weizenkörner (Triticum aestivum) werden in einer mit Agar und etwas Wasser gefüllten Multiwell-Platte für einen Tag inkubiert (5 Saatkörner pro Kavität). Die gekeimten Weizenkörner werden mit einer Wirkstoffzubereitung der gewünschten Konzentration gespritzt. Anschließend wird jede Kavität mit 10-20 Käferlarven von Diabrotica balteata infiziert.
Nach 7 Tagen wird die Wirkung in % bestimmt. Dabei bedeutet 100 %, dass alle Weizenpflanzen wie in der unbehandelten, nicht infizierten Kontrolle gewachsen sind; 0 % bedeutet, dass keine Weizenpflanze gewachsen ist.

For data set [1], the system named is Myzus persicae. The data set can be described thus: Myzus persicae spray test. It is filed as in vivo. Conditions: 100 g/ha; Chinese cabbage leaf discs (Brassica pekinensis), all stages; after 5 days.
Source text: Bei diesem Test zeigten z. B. die folgenden Verbindungen der Herstellungsbeispiele Wirkung von 100 % bei einer Aufwandmenge von 20 ppm: 1. Myzus persicae - Sprühtest
as §1
Chinakohlblattscheiben (Brassica pekinensis), die von allen Stadien der Grünen Pfirsichblattlaus (Myzus persicae) befallen sind, werden mit einer Wirkstoffzubereitung der gewünschten Konzentration gespritzt.
(§2) Nach 5 Tagen wird die Wirkung in % bestimmt. Dabei bedeutet 100 %, dass alle Blattläuse abgetötet wurden; 0 % bedeutet, dass keine Blattläuse abgetötet wurden.

The nature of data set [2]: logP determination by HPLC on reversed-phase (C18) columns, OECD Guideline 117. It is filed as physicochemical. The source says: Die Eichung erfolgt mit unverzweigten Alkan-2-onen (mit 3 bis 16 Kohlenstoffatomen), deren logP-Werte bekannt sind (Bestimmung der logP-Werte anhand der Retentionszeiten durch lineare Interpolation zwischen zwei aufeinander folgenden Alkanonen).

A further data set relates to Nezara viridula. The data set can be described thus: Nezara viridula spray test. The format is in vivo. Conditions: 500 g/ha; barley plants (Hordeum vulgare) with larvae; after 4 days.
Source text: Bei diesem Test zeigten z. B. die folgenden Verbindungen der Herstellungsbeispiele Wirkung von 90 % bei einer Aufwandmenge von 100 g/ha: 1, 5, 6, 9. Nezara viridula -Sprühtest
as §1
Gerstenpflanzen (Hordeum vulgare), die mit Larven der Grünen Reiswanze (Nezara viridula) infiziert sind, werden mit einer Wirkstoffzubereitung der gewünschten Konzentration gespritzt.
Nach 4 Tagen wird die Wirkung in % bestimmt. Dabei bedeutet 100 %, dass alle Reiswanzen abgetötet wurden; 0 % bedeutet, dass keine Reiswanzen abgetötet wurden.

Another data set relates to Ctenocephalides felis. The data set is described as follows: Ctenocephalides felis oral test. Conditions: 100 ppm in citrated cattle blood; adult cat fleas; after 2 days. It is filed as in vivo. The method, then: Ctenocephalides felis - Oraltest
Zwecks Herstellung einer zweckmäßigen Wirkstoffzubereitung vermischt man 10 mg Wirkstoff mit 0,5 ml Dimethylsulfoxid. Durch Verdünnen mit citriertem Rinderblut erhält man die gewünschte Konzentration.
Ca. 20 nüchterne adulte Katzenflöhe (Ctenocephalides felis) werden in eine Kammer eingesetzt, die oben und unten mit Gaze verschlossen ist. Auf die Kammer wird ein Metallzylinder gestellt, dessen Unterseite mit Parafilm verschlossen ist. Der Zylinder enthält die Blut-Wirkstoffzubereitung, die von den Flöhen durch die Parafilmmembran aufgenommen werden kann.
Nach 2 Tagen wird die Abtötung in % bestimmt. Dabei bedeutet 100 %, dass alle Flöhe abgetötet wurden; 0 % bedeutet, dass keiner der Flöhe abgetötet wurde.

A further data set deals with Phaedon cochleariae. The data set is described as follows: Phaedon cochleariae spray test. The note with it: 500 g/ha; Chinese cabbage leaf discs (Brassica pekinensis), larvae; after 7 days. The format is in vivo.
Source text: Bei diesem Test zeigten z. B. die folgenden Verbindungen der Herstellungsbeispiele Wirkung von 100 % bei einer Aufwandmenge von 500 g/ha: 1. Phaedon cochleariae - Sprühtest
as §1
Chinakohlblattscheiben (Brassica pekinensis) werden mit einer Wirkstoffzubereitung der gewünschten Konzentration gespritzt und nach dem Abtrocknen mit Larven des Meerrettichblattkäfers (Phaedon cochleariae) besetzt.
Nach 7 Tagen wird die Wirkung in % bestimmt. Dabei bedeutet 100 %, dass alle Käferlarven abgetötet wurden; 0 % bedeutet, dass keine Käferlarven abgetötet wurden.

For data set [3], the system named is Myzus persicae. The data set can be described thus: Myzus persicae oral test. Conditions: 20 ppm; mixed population, uptake through Parafilm; after 5 days. The format is in vivo. The method, then:
Bei diesem Test zeigten z. B. die folgenden Verbindungen der Herstellungsbeispiele Wirkung von 100 % bei einer Aufwandmenge von 500 g/ha (=160 µg/Kavität): 1, 2, 3, 5, 6, 7, 8, 9, 10, 11, 12. Myzus persicae - Oraltest
Zur Herstellung einer zweckmäßigen Wirkstoffzubereitung löst man 1 Gewichtsteil Wirkstoff mit den angegebenen Gewichtsteilen Lösungsmittel und füllt mit Wasser bis zum Erreichen der gewünschten Konzentration auf.
50 µl der Wirkstoffzubereitung werden in Mikrotiterplatten überführt und mit 150µl IPL41Insektenmedium (33% + 15% Zucker) auf eine Endvolumen von 200 µl aufgefüllt. Anschließend werden die Platten mit Parafilm verschlossen, durch den eine gemischte Population der Grünen Pfirsichblattlaus (Myzus persicae), die sich in einer zweiten Mikrotiterplatte befindet, hindurchstechen und die Lösung aufnehmen kann.
as §2

Another data set has as its system Tetranychus urticae. The data set can be described thus: Tetranychus urticae spray test, OP-resistant. The note with it: 500 g/ha; bean leaf discs (Phaseolus vulgaris), all stages, OP-resistent; after 6 days. It is filed as in vivo.
Source text: Bei diesem Test zeigten z. B. die folgenden Verbindungen der Herstellungsbeispiele Wirkung von 100 % bei einer Aufwandmenge von 500 g/ha: 1. Tetranychus urticae - Sprühtest, OP-resistent
as §1
Bohnenblattscheiben (Phaseolus vulgaris), die von allen Stadien der Gemeinen Spinnmilbe (Tetranychus urticae) befallen sind, werden mit einer Wirkstoffzubereitung der gewünschten Konzentration gespritzt.
Nach 6 Tagen wird die Wirkung in % bestimmt. Dabei bedeutet 100 %, dass alle Spinnmilben abgetötet wurden; 0 % bedeutet, dass keine Spinnmilben abgetötet wurden.

Another data set relates to Nilaparvata lugens. The data set can be described thus: Nilaparvata lugens test. The format is in vivo. Conditions: 500 g/ha; rice plants (Oryza sativa); after 4 days.
Source text: Bei diesem Test zeigten z. B. die folgenden Verbindungen der Herstellungsbeispiele Wirkung von 90 % bei einer Aufwandmenge von 500 g/ha: 1. Nilaparvata lugens -Test
as §1
Reispflanzen (Oryza sativa) werden mit der Wirkstoffzubereitung der gewünschten Konzentration gespritzt und anschließend mit der Braunrückigen Reiszikade (Nilaparvata lugens) infiziert.
Nach 4 Tagen wird die Wirkung in % bestimmt. Dabei bedeutet 100 %, dass alle Reiszikaden abgetötet wurden; 0 % bedeutet, dass keine Reiszikaden abgetötet wurden.

The mark [4] stands for this setting: reversed-phase (C18) HPLC column, HPLC-MS (ESI-positiv), acidic or neutral range not given, read-out: LogP-Wert.
Setting [5] is: HPLC-MS/UPLC-MS neutral (method [b], pH 7,8).
Setting [6] is: pH 7.8, HPLC-MS/UPLC-MS neutral (method [b], pH 7,8), read-out: LogP-Wert.
[7] abbreviates: HPLC-MS (ESI-positiv), acidic or neutral range not given.

For the compound `CCc1csc(N=c2ccccn2-c2ccc(C(F)(F)F)nc2)n1` [Beispiel 5], the values for the Wirkung in % in the data set with Diabrotica balteata and with Myzus persicae [1] were 100% and 90%, respectively. For the same compound, the chromatographic logP in [2] (pH 2.7, LogP-Wert (HCOOH)) came out at 1.13.
As to `FC(F)c1ccc(-n2ccccc2=S)cn1` [II-2, 6'-Difluormethyl-[1(2H), 3'-bipyridin]-2-thion], the LogP-Wert in [2] was 1,23. Also, in data set [2] (LogP-Wert), the chromatographic logP worked out at 1.18.
For the compound `FC(F)(F)c1ccc(-n2ccccc2=Nc2nc(C(F)(F)C(F)(F)F)cs2)cn1` [Beispiel 7], the Wirkung in % with Diabrotica balteata stood at 100%. The chromatographic logP in data set [2] (pH 2.7, LogP-Wert (HCOOH)) turned out to be 4.03.
In data set [2] (pH 7.8, LogP-Wert), `CCOC(=O)NC(=S)N=c1ccccn1-c1ccc(C(F)(F)F)nc1` [VI-1, Ethyl N-[1-[(6-trifluormethyl-3-pyridyl)]-2-pyridylidene]carbamothioylcarbamat] gave a chromatographic logP of 1.71.
With `FC(F)(F)c1ccc(-n2ccccc2=Nc2nc(C3(F)CC3)cs2)cn1` [Beispiel 9], the Wirkung in % in the data set on Diabrotica balteata is listed as 100%; in the data set with Myzus persicae [1] it was 90%. For the same compound, the chromatographic logP in data set [2] (pH 2.7, LogP-Wert (HCOOH)) was 2.04.
Take `CSc1cccc[n+]1-c1ccc(C(F)(F)F)nc1` [III-1]: the chromatographic logP in [2] (setting [4]) came to 0.57.
With `NC(=S)N=c1ccccn1-c1ccc(C(F)F)nc1` [VII-2, N-[1-[(6-Difluormethyl-3-pyridinyl)]-2(1H)-pyridinyliden]-thioharnstoff], the chromatographic logP in data set [2] (pH 7.8, LogP-Wert) amounted to 0.7.
With `N#CC1(c2csc(N=c3ccccn3-c3ccc(C(F)F)nc3)n2)CC1` [Beispiel 12], the Wirkung in % in the data set on Diabrotica balteata is 100%. The compound further registered a chromatographic logP in data set [2] (pH 7.8, LogP-Wert (neutral)) of 2.65.
With `N=C(N=c1ccccn1-c1ccc(C(F)(F)F)nc1)SCC(=O)C(F)(F)F` [N-[1-[(6-trifluormethyl-3-pyridyl)]-2-pyridyliden]-imidothio-(3,3,3-trifluoro-2-oxopropyl)-ester], in data set [2] (setting [5]), the LogP-Wert is on record as 2,39. For the same compound, the chromatographic logP in [2] (setting [6]) came out at 2.37.
Turning to `N=c1ccccn1-c1ccc(C(F)(F)F)nc1` [IV-1, 6'-Trifluormethyl-[1(2H), 3'-bipyridin]-2-imin-hydrogeniodid], the chromatographic logP in data set [2] (setting [4]) was determined as 2.17.
For the compound `CSc1cccc[n+]1-c1ccc(C(F)F)nc1` [III-2], in data set [2] (LogP-Wert), the chromatographic logP was 0.04.
With `FC(F)(F)c1ccc(-n2ccccc2=Nc2ncccn2)cn1` [Beispiel 4, 1-[(6-Trifluormethyl-3-pyridyl]-N-(pyrimid-2-yl))pyridin-2-imin], the LogP-Wert result in data set [2] (setting [7]) is “LogP-Wert = 1,38”.
As for `N#CC1(c2csc(N=c3ccccn3-c3ccc(C(F)(F)F)nc3)n2)CC1` [Beispiel 8], the Wirkung in % in the data set with Diabrotica balteata and in the data set on Myzus persicae [1] was 100% each time. The chromatographic logP in [2] (pH 2.7, LogP-Wert (HCOOH)) came to 2.39.
`FC(F)(F)c1ccc(-n2ccccc2=S)cn1` [II-1, 6'-Trifluormethyl-[1(2H), 3'-bipyridin]-2-thion]: in data set [2] (setting [6]), the chromatographic logP stood at 1.67.
Take `NC(=S)N=c1ccccn1-c1ccc(C(F)(F)F)nc1` [VII-1, N-[1-[(6-Trifluormethyl-3-pyridinyl)]-2(1H)-pyridinyliden]-thioharnstoff]: in data set [2] (setting [7]), the LogP-Wert is 1,12 and 1,14.
With `CC(C)(C)c1csc(N=c2ccccn2-c2ccc(C(F)(F)F)nc2)n1` [Beispiel 11], in the data set with Diabrotica balteata, the Wirkung in % is listed as 100%. This compound yielded a chromatographic logP in [2] (pH 2.7, LogP-Wert (HCOOH)) of 1.47.
`CCOC(=O)NC(=S)N=c1ccccn1-c1ccc(C(F)F)nc1` [VI-2, Ethyl N-[1-[(6-difluormethyl-3-pyridyl)]-2-pyridylidene]carbamothioylcarbamat]: in [2] (pH 7.8, LogP-Wert), the chromatographic logP stood at 1.28.
Take `FC(F)(F)c1ccc(-n2ccccc2=Nc2nc(C(F)(F)F)cs2)cn1` [Beispiel 3, 1-[(6-Trifluormethyl-3-pyridyl]-N-(4-trifluormethylthiazol-2-yl))pyridin-2-imin]: the Wirkung in % in the data set with Diabrotica balteata and in the data set with Myzus persicae [1] was 100% throughout. Moreover, the LogP-Wert result in data set [2] (setting [7]) was “LogP-Wert = 3,60”.
Turning to `FC(F)c1ccc(-n2ccccc2=Nc2nc(C3(F)CC3)cs2)cn1` [Beispiel 2], the Wirkung in % in the data set with Diabrotica balteata stood at 100%. Moreover, the LogP-Wert result in [2] (setting [5]) is recorded as “LogP-Wert = 3,02”.
As to `Cc1csc(N=c2ccccn2-c2ccc(C(F)(F)F)nc2)n1` [Beispiel 1], the Wirkung in % in the data set on Nezara viridula turned out to be 90%; in the data set on Diabrotica balteata, 100%; with Myzus persicae [1], 90%; in the data set with Phaedon cochleariae it was 100%; with Myzus persicae [3], 100%; in the data set with Tetranychus urticae, 90%. Further, the Wirkung in % in the data set on Nilaparvata lugens is given as 100%. In addition, in the data set on Ctenocephalides felis, the “Abtötung in % (Wirkung)” value is on record as 80%. Further, the LogP-Wert entry in [2] (setting [7]) is “LogP-Wert = 1,08”.
As to `FC(F)(F)c1ccc(-n2ccccc2=Nc2nc(C3CC3)cs2)cn1` [Beispiel 6], the Wirkung in % was determined as 100% in the data set with Diabrotica balteata and 90% in the data set with Myzus persicae [1]. The compound also returned a chromatographic logP in data set [2] (pH 2.7, LogP-Wert (HCOOH)) of 1.34.
Take `CC1(c2csc(N=c3ccccn3-c3ccc(C(F)(F)F)nc3)n2)CC1` [Beispiel 10]: in the data set on Diabrotica balteata, the Wirkung in % is 100%. Moreover, the chromatographic logP in [2] (pH 7.8, LogP-Wert (neutral)) was found to be 3.99.
